No end group written: not given here.
Tests used:
HT-29 cells = assay: Spontaneous IL-8 secretion from intestinal epithelial cells (ELISA); type: cell-based, human; design: IL-8 secretion Average O.D.: scale not given here; conditions: peptide 1 nM, 24 h at 37° C.; for IL-8 secretion Average O.D.: ELISA O.D. at 405 nm, medium alone 488 ± 8.5, background 71 ± 1.4; for IL-8 secretion % inhibition: spontaneous secretion
Description: Human colonic epithelial cell lines HT-29 (ATCC HTB38) and Caco-2 (ATCC […]) were obtained from the American Type Culture Collection (ATTC, Rockville, Md.). Cells were maintained in culture medium (DMEM supplemented with 10% cosmic calf serum (CSS), 2 mM glutamine, 100 U/ml penicillin, and 0.1 mg/ml streptomycin), at 37° C. and atmosphere of 5%, CO2. Cell viability was assessed using the standard MTT method.
Spontaneous or cytokine-induced secretion of IL-8 or IL-1β from intestinal epithelial cell. Test cells (HT-29 or Caco-2) were grown as confluent monolayers in 24-well tissue culture plates. […] When TNF-α was used, the peptides were added to the cells 1 hour prior to the addition of TNF-α. Following culture, the supernatants were harvested and analyzed for IL-8 or IL-1β secretion by ELISA using commercially available kits for IL-8 (Pharmingen) and IL-1β (Genzyme), according to the manufacturers' protocols.
The results in Table 1 show the O.D. readings of the ELISA assay (at 405 nm) as well as the percentage of inhibition of IL-8 secretion.

human T cells [1] = assay: Induction of T cell adhesion to ECM, FN, LN and CO-IV; type: cell-based; conditions: T cells activated only with PMA; not shown
human T cells [2] = assay: Secretion of TNF-α and IFN-γ from proliferating T cells; type: cell-based; conditions: peptide 1 to 100 pg/ml; not shown
human T cells [3] = assay: IL-2-induced T cell adhesion to LN, CO-IV and FN after peptide pre-treatment; type: cell-based; conditions: pre-exposed to peptide 10 pg/ml, then IL-2 10 U/ml
Description: The T cells were then seeded onto microtiter wells that were pre-coated (1 μg/well) with the various ECM glycoproteins. T cell adhesion was measured 30 min later.
(§1) T cell adhesion assays. Human T cells were purified from the peripheral blood of healthy donors, and T cell adhesion to immobilized protein substrates was examined as follows: Human leukocytes were isolated on a Ficoll gradient, washed, and incubated (2 h, 37° C., 7.5% CO2, humidified atmosphere) on petri dishes. The non-adherent cells were then collected and incubated (1 h, 37° C., 7.5% CO2, humidified atmosphere) on nylon wool columns (Novamed Ltd., Jerusalem, Israel). Unbound cells were eluted from the columns by extensive washings. The resulting cell population was always >92% T cells. […] After 4-6 h at 37° C., the wells were washed and ^51[Cr]-labeled T cells were added to the wells, 10^5 cells/100 μl of adhesion medium (RPMI-1640 supplemented with 0.1% BSA, 1% sodium pyruvate, 1% HEPES buffer). The microtiter plates containing the cells were incubated (30 min, 37° C.) in a humidified, 7.5% CO2 atmosphere, and then washed. The adherent cells were lysed, and the resulting supernatants were removed and analyzed in a γ-counter. For each experimental group, the results were expressed as the mean percentage ±SD of bound T cells from quadruplicate wells.
Ile-Val-Leu, Arg-Met-Leu-Thr (SEQ ID NO:2) and […](SEQ ID NO:1) inhibit T cell adhesion to LN, CO-IV and FN. The next experiment was designed and performed to verify that the three IL-2-derived peptides indeed affect T cell interactions with ECM glycoproteins other than FN. […] The treated cells were then added to microtiter wells coated with CO-IV, LN, and FN.

human T cells [4] = assay: T cell chemotaxis through FN-coated polycarbonate membranes; type: cell-based; conditions: peptide 1 pg/ml, FN-coated membrane
Description: T cell migration towards the chemotactic sources was assessed after 2 hr. One experiment representative of four.
Chemotaxis assays. T cell chemotaxis was performed and analyzed as previously described (Ben-Baruch et al., 1997). Briefly, the migration of human T cells (0.5×10^6 cells in adhesion medium/well) was examined in a 48-well chemotaxis micro-chamber (Neuro-Probe Inc., Cabin John, M D). The two compartments of the micro-chambers were separated by a FN-coated polycarbonate filter (5 μm pore size; Osmonics Protein Products, Livemore, Calif.). […] After incubation (120 min, 37° C., in a humidified, 7.5% CO2 atmosphere); the filters were removed, fixed, and stained with a Diff-Quik staining kit Dade, Düdingen, Switzerland). The number of migrating T cells in five high-power fields (under 500× magnification; WILD Microscope, Heerbrugg, Switzerland) was evaluated. For each group, the results are expressed as the mean number of cells in one high-power field.
Immune cell migration is the outcome of a subtle biological equilibrium existing between adhesion and detachment events. Lymphocyte adhesion to the subendothelial ECM and subsequent migration are two active processes that can overlap, but are not mutually dependent events. Adhesion and migration may depend on the ability of the T cells to continuously integrate different pro- and anti-adhesive signals via their versatile receptors for ECM, chemokines, cytokines, and possibly, also antigenic moieties.

human T cells [5] = assay: PHA- or IL-2-mediated T cell proliferation; type: cell-based; conditions: peptide 1 to 100 pg/ml
Description: The in vitro bioassays (a) to (e) are well-known in the art. Thus, for example, assays (a), (b) and (e) may be carried out as described in the section Materials and Methods hereinafter. […] The IL-2-derived peptides or their derivatives are added to the culture wells (different amounts, 10 microliters) for the entire period of the assay. [^3H]-Thymidine is added to the microtiter 96 U-form well plates 18 h before harvesting the cultures on day 3 onto glass fiber filters and counted by liquid scintillation counter. Mean CPM and SD from quadriplicate culture are then presented.

human T cells [6] = assay: IL-2-induced T cell adhesion to fibronectin (FN); type: cell-based; conditions: for inhibition of adhesion of IL-2-activated T cells to FN: 30 min at 37° C., dose range
Description: as §1
The effect of synthetic peptides, with putative amino acid compositions corresponding to fractions 2 and 8, on IL-2-induced T cell adhesion to FN. […] These three peptides were synthesized, and their effects on IL-2-induced T cell adhesion to FN were studied. […] The inhibitory dose-response curves of Ile-Val-Leu and […](SEQ ID NO:1) are similar to those of the HPLC fractions 2 and 8, respectively, from which they were derived. […]

Compound	IL-8 secretion Average O.D. (HT-29 cells)	IL-8 secretion % inhibition (HT-29 cells)	also measured
IVLELKG [pep5]	35 ± 0.7	109%	–
NINVIVL [pep4]	34 ± 3.5	109%	–
EALNRWIT [pep24]	187 ± 16.3	72%	–
Ile-Val-Ala [pep9]	100 ± 9.9	93%	–
EFLNRWAT [pep31]	112 ± 18.4	90%	–
Glu-Phe-Leu-Asn [pep21]	195 ± 14.1	70%	–
CCCCCCCCCCCCCC(=O)O[C@@H]1[C@@H](C)[C@@]2(O)[C@@H](C=C(CO)C[C@]3(O)C(=O)C(C)=C[C@@H]23)[C@@H]2C(C)(C)[C@]12OC(C)=O [PMA]	–	–	T cells adhered to immobilized ECM and ECM glycoproteins (human T cells [1]): 45±4.4%
Glu-Phe-Leu-Asn-Arg-Trp-Ile-Thr-NH2 (EFLNRWIT-NH2) [pep33]	73 ± 5.7	100%	–
Arg-Val-Leu-Thr (RVLT) [pep41]	132 ± 17.0	85%	–
Ala-Val-Leu [pep7]	170 ± 8.5	76%	–
EFLNEWIT [pep29]	139 ± 19.8	84%	–
EFANRWIT [pep26]	156 ± 27.6	80%	–
Arg-Met-Leu-Thr (RMLT; not fully specified (C-terminus); printed as Arg-Met-Leu-Thr) [pep3]	44 ± 0.7	107%	inhibition of secretion of TNF-α and IFN-γ from proliferating T cells (human T cells [2]): nor did these peptides inhibit the secretion of TNF-α and IFN-γ; inhibition of T cell adhesion to CO-IV, LN and FN (human T cells [3]): inhibit T cell adhesion to the three major cell-adhesive glycoproteins of the ECM; inhibition of T cell migration toward IL-2 (human T cells [4]; IL-2 10 U/ml in lower compartment, p<0.01): ~90%; inhibition of T cell chemotaxis toward MIP-1β (human T cells [4]; MIP-1β in lower compartment): 60%; interference with PHA- or IL-2-mediated proliferative responses (human T cells [5]): none of them, at 1 to 100 pg/ml, interfered with either PHA- or IL-2-mediated proliferative responses; concentration giving maximum inhibition of IL-2-induced T cell adhesion to FN (human T cells [6]; IL-2 10 U/ml): about 0.1 pg/ml; concentration giving maximum inhibition of IL-2-induced T cell adhesion to FN (molar) (human T cells [6]; IL-2 10 U/ml): ~0.2 pM; inhibition of adhesion of IL-2-activated T cells to FN (human T cells [6]; IL-2 10 U/ml): inhibited, in a dose-dependent manner; anti-adhesive effect after removal of peptide prior to IL-2 activation (human T cells [6]; T cells pre-treated 1 pg/ml, washed, then IL-2 and FN-coated wells): most of the anti-adhesive effects of the three peptides persevered; relative potency as inhibitor of IL-2-induced T cell adhesion to FN (human T cells [6]; among the three IL-2 peptides): most potent inhibitor
IVEFLNRWIT [pep15]	33 ± 0.7	109%	–
ATIVEFLNRWIT [pep17]	150 ± 6.4	81%	–
TIWRNLFE [reference compound]	–	–	inhibition of adhesion of IL-2-activated T cells to FN (human T cells [6]; IL-2 10 U/ml): none of these peptides, tested in a broad range of dosages, interfere with T cell adhesion
RMLTFKFY [pep44]	307 ± 29.7	43%	–
Lys-Met-Leu-Thr (KMLT) [pep40]	179 ± 17.7	74%	–
EFLNRAIT [pep30]	123 ± 9.2	88%	–
Arg-Met-Leu-Thr-NH2 (RMLT-NH2) [pep42]	226 ± 28.3	63%	–

Compound	IL-8 secretion Average O.D. (HT-29 cells)	IL-8 secretion % inhibition (HT-29 cells)	also measured
Arg-Ala-Leu-Thr (RALT) [pep37]	222 ± 24.0	64%	–
LNRWIT [pep19]	152 ± 30.4	81%	–
EFLNAWIT [pep28]	120 ± 8.5	88%	–
Arg-Met-Leu-Ala (RMLA) [pep39]	160 ± 21.9	79%	–
EVLNRWIT [pep25]	172 ± 2.8	76%	–
KFLNRWIT [pep23]	36 ± 14.1	108%	–
Ala-Met-Leu-Thr (AMLT) [pep36]	201 ± 17.7	69%	–
Glu-Val-Leu [pep10]	125 ± 19.1	87%	–
EFLNRWITFCQS [pep18]	162 ± 12.0	78%	–
Arg-Met-Ala-Thr (RMAT) [pep38]	157 ± 1.4	79%	–
Arg-Trp-Ile-Thr [pep20]	191 ± 4.9	71%	–
PKLTRMLT [pep43]	57 ± 12.7	103%	–
Asn-Val-Ile-Val-Leu (NVIVL) [pep6]	100 ± 14.8	93%	–
Thr-Leu-Met-Arg (TLMR) [reference compound]	–	–	inhibition of adhesion of IL-2-activated T cells to FN (human T cells [6]; IL-2 10 U/ml): none of these peptides, tested in a broad range of dosages, interfere with T cell adhesion
EFLNRWITFC [pep16]	126 ± 7.1	87%	–
EFLNRWIA [pep32]	80 ± 24.0	98%	–
EFLARWIT [pep27]	309 ± 18.4	43%	–
Ile-Ala-Leu [pep8]	35 ± 4.9	109%	–
AFLNRWIT [pep22]	158 ± 4.2	79%	–
Leu-Val-Ile [reference compound]	–	–	inhibition of adhesion of IL-2-activated T cells to FN (human T cells [6]; IL-2 10 U/ml): none of these peptides, tested in a broad range of dosages, interfere with T cell adhesion

From patent publication US6906170B1 (Yeda Research and Development Co. Ltd., priority 1998, dated 2005)
